Experimental data taken from patent US8436012B2, “Imidazopyridin-2-one derivatives” (Daiichi Sankyo Company, Limited, priority 2008, dated 2013).

Columns and labels:
[1] = system: WM-266-4 cells; test: Cell Proliferation Inhibitory Test; type: cell-based; conditions: Homo sapiens, 72 h, cultured three days with test compound, MTT, read-out: 50% cell proliferation inhibitory activity (GI50 value)
Procedure: WM-266-4 cells (ATCC, USA) were seeded in a 96-well plate and cultured overnight. Then, serial dilutions of the sample containing the test compound were prepared, added to each well and cultured another three days. Thereafter, the cell amount in each well was measured by MTT (MOSMANN, T., Rapid colorimetric assay for cellular growth and survival: application to proliferation and cytotoxicity assays. J. Immunol. Methods, 65, 55-63 (1983)). The 50% cell proliferation inhibitory activity (GI50 value) was calculated from the following formula (3). 100×[(T−T0)/(C−T0)]=50 (3)
Here, T represents values from the test compound added wells, C represents the value from the well to which the test compound was not added for three days, and To represents an initial measured value at the time of addition of the test compound.

[2] = target: T1, human mTOR (Homo sapiens, UniProt P42345); test: mTOR Kinase Activity Inhibition Test; type: biochemical; conditions: His-tagged mTOR (1362C), biotinylated peptide substrate, ATP, 3 hours at room temperature, fluorescence resonance energy transfer 665 nm/620 nm; read-out: IC50 value of mTOR enzyme inhibitory activity
T1 construct: the portion corresponding to 1362-2549aa at the C terminus of human mTOR; made in house
Procedure: The kinase activity of mTOR was measured in the presence or absence of a test compound. A substrate peptide is phosphorylated by mTOR kinase activity. A complex of streptavidin-XL665 and anti-phosphorylated S6K (Thr389) antibody/anti-mouse IgG-cryptate binds to this phosphorylated peptide. At this moment, fluorescence resonance energy transfer takes place from antibody/anti-mouse IgG-cryptate exposed to light excitation to XL665, which results in emission of fluorescence at 665 nm. The mTOR kinase activity is detected using this principle.
(1) Sample Preparation and Enzymatic Reaction
An HEK293 cell line that constitutively expresses a His tag fused human mTOR has been established. His tag was introduced into the N terminus of the portion corresponding to 1362-2549aa at the C terminus of human mTOR. Cell lysate was prepared from this HEK293 cell line constitutively expressing His-tagged mTOR (1362C), and His-tagged mTOR (1362C) was purified using the His tag affinity according to a conventional method.
Next, an mTOR enzyme solution was prepared, which contains the aforementioned His-tagged mTOR (1362C) enzyme, 8 μg/mL of biotinylated peptide (Biotin-Ahx-[…]-amide (Sigma)), as well as 50 mM HEPES (pH 7.5), 20 mM MnCl2, 1 mg/ml BSA, an appropriate amount of protease inhibitor cocktail (Complete EDTA free, Roche), 100 ng/ml Calyculin A, 4 μg/ml Cantharidin and 10 mM DTT as other components.
The test compound was dissolved in DMSO, and serial dilutions were prepared with 20 μM ATP solution (50 mM HEPES (pH 7.5), 20 μM ATP) to achieve concentrations necessary for the assay. 5 μL of this compound solution was applied to each well of a 384 well small volume white Greiner plate.
5 μL of mTOR enzyme solution was added to the aforementioned well containing the test compound. After mixing, the mixture was incubated at room temperature for 3 hours to carry out the enzymatic reaction.
The same operation was performed with a solution of DMSO in 20 μM ATP solution as a positive control and with a solution of DMSO in 50 mM HEPES (pH 7.5) as a negative control.
(2) Detection of Enzymatic Reaction
After the enzymatic reaction, 5 μl each of an europium solution (a solution of anti-mouse IgG-cryptate (SCETI Medical Labo K.K.) and anti-phosphorylated S6K (Thr389) antibody (Cell Signaling Technology Inc.) in 50 mM HEPES (pH 7.5), 100 mM EDTA and 1.5 mg/ml BSA) and an XL665 solution (a solution of streptavidin-XL665 (SCETI Medical Labo K.K.) in 50 mM HEPES (pH 7.5), 100 mM EDTA, 0.8 M KF and 1.5 mg/ml BSA) were added in this order and then mixed. The mixture was incubated at 4° C. overnight. On the following day, the mixture was returned to room temperature and irradiated with excitation light at 337 nm. Fluorescence at 620 nm and fluorescence at 665 nm were measured with RUBYstar (BMG).
The mTOR inhibitory activity (%) was calculated using the ratio calculated from the measured values as an index of enzyme activity. Here, the ratio was calculated from the following formula (I). Ratio=10000×665 nm fluorescence value/620 nm fluorescence value (1)
The mTOR enzyme inhibitory activity (%) was calculated from the following formula (2). mTOR enzyme inhibitory activity (%)=100×[(P−S)/(P−N)] (2)
P: Ratio in well of positive control
N: Ratio in well of negative control
S: Ratio in well containing test compound
Further, an optimal curve was calculated based upon each concentration of the test compound prepared in serial dilutions and the mTOR enzyme inhibitory activity (%) at that concentration. The concentration at which 50% inhibition occurred was calculated as the IC50 value of mTOR enzyme inhibitory activity.

T1 sequence (P42345 1362-2549): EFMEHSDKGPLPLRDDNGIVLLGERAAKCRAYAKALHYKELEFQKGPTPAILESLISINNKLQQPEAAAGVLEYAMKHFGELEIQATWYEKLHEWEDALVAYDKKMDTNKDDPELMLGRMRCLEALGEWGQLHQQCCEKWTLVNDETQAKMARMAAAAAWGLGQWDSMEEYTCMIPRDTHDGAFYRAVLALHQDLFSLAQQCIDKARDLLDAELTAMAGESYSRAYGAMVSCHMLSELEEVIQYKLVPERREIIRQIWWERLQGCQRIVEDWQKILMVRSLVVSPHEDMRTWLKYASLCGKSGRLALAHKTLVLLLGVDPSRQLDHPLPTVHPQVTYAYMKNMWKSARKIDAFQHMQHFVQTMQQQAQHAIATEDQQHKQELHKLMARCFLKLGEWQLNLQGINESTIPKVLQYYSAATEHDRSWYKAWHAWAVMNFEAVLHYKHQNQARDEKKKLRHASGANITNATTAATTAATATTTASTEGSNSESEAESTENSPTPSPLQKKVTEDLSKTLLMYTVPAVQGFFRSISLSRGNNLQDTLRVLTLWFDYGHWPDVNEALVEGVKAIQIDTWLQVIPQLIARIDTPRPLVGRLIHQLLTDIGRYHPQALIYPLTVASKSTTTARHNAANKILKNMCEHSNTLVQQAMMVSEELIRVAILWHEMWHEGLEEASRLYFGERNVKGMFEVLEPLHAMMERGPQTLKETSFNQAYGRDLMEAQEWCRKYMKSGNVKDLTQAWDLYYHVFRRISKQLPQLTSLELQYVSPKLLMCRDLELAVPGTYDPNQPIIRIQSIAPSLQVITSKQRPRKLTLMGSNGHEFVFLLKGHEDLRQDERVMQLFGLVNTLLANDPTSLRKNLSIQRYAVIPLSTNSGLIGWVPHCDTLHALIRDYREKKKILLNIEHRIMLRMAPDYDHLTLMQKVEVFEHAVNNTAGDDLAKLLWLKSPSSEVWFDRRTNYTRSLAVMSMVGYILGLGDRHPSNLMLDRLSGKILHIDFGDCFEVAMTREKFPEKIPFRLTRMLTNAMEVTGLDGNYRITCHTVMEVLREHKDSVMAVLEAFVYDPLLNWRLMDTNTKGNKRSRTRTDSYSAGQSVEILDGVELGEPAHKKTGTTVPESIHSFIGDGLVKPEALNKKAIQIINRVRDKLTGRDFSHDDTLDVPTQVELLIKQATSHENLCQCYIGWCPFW

IC50 [2] [nM] | SMILES | GI50 [1] [nM]
< 50 | Nc1n[nH]c2ccc(-c3cnc4[nH]c(=O)n(CC5CCOCC5)c4c3)cc12 [Example 72, 6-(3-Amino-1H-indazol-5-yl)-1-(tetrahydro-2H-pyran-4-ylmethyl)-1,3-dihydro-2H-imidazo[4,5-b]pyridin-2-one] | 3000 to 25000
< 50 | O=c1[nH]c2ncc(-c3cnc4[nH]ccc4c3)cc2n1CCC1CCOCC1 [Example 20, 6-(1H-Pyrrolo[2,3-b]pyridin-5-yl)-1-[2-(tetrahydro-2H-pyran-4-yl)ethyl]-1,3-dihydro-2H-imidazo[4,5-b]pyridin-2-one] | < 3000
< 50 | O=c1[nH]c2ncc(-c3ccc4[nH]ccc4c3)cc2n1CCC1CCOCC1 [Example 3, 6-(1H-Indol-5-yl)-1-[2-(tetrahydro-2H-pyran-4-yl)ethyl]-1,3-dihydro-2H-imidazo[4,5-b]pyridin-2-one] | < 3000
< 50 | O=c1[nH]c2nc(Cl)c(-c3cnc4[nH]ccc4c3)cc2n1C[C@H]1COCCO1 [Example 155, 5-Chloro-1-[(2S)-1,4-dioxan-2-ylmethyl]-6-(1H-pyrrolo[2,3-b]pyridin-5-yl)-1,3-dihydro-2H-imidazo[4,5-b]pyridin-2-one] | < 3000
< 50 | Cc1nc2[nH]c(=O)n(C[C@H]3COCCO3)c2cc1-c1cnc2[nH]ccc2c1C [Example 45, 1-[(2S)-1,4-Dioxan-2-ylmethyl]-5-methyl-6-(4-methyl-1H-pyrrolo[2,3-b]pyridin-5-yl)-1,3-dihydro-imidazo[4,5-b]pyridin-2-one] | < 3000
< 50 | C[C@@H]1CN(CCn2c(=O)[nH]c3ncc(-c4ccc5[nH]ccc5c4)cc32)C[C@H](C)O1 [Example 52, 1-{2-[cis-2,6-Dimethylmorpholin-4-yl]ethyl}-6-(1H-indol-5-yl)-1,3-dihydro-2H-imidazo[4,5-b]pyridin-2-one] | < 3000
100 to 5000 | O=c1[nH]c2ncc(-c3cnc4ccnn4c3)cc2n1CC1CCOCC1 [Example 73, 6-Pyrazolo[1,5-a]pyrimidin-6-yl-1-(tetrahydro-2H-pyran-4-ylmethyl)-1,3-dihydro-2H-imidazo[4,5-b]pyridin-2-one] | 3000 to 25000
100 to 5000 | O=c1[nH]c2ncc(-c3ccc4[nH]ncc4c3)cc2n1CC1CCOCC1 [Example 14, 6-(1H-Indazol-5-yl)-1-(tetrahydro-2H-pyran-4-ylmethyl)-1,3-dihydro-2H-imidazo[4,5-b]pyridin-2-one] | 3000 to 25000
< 50 | O=c1[nH]c2ncc(-c3cnc4[nH]ccc4c3Cl)cc2n1CC1CCOCC1 [Example 34, 6-(4-Chloro-1H-pyrrolo[2,3-b]pyridin-5-yl)-1-(tetrahydro-2H-pyran-4-ylmethyl)-1,3-dihydro-2H-imidazo[4,5-b]pyridin-2-one] | < 3000
100 to 5000 | CC(=O)c1c[nH]c2ncc(-c3cnc4[nH]c(=O)n(CC5CCOCC5)c4c3)cc12 [Example 85, 6-(3-Acetyl-1H-pyrrolo[2,3-b]pyridin-5-yl)-1-(tetrahydro-2H-pyran-4-ylmethyl)-1,3-dihydro-2H-imidazo[4,5-b]pyridin-2-one] | 3000 to 25000
< 50 | O=c1[nH]c2ncc(-c3cnc4[nH]cc(C(F)(F)F)c4c3)cc2n1CC1CCOCC1 [Example 84, 1-(Tetrahydro-2H-pyran-4-ylmethyl)-6-[3-(trifluoromethyl)-1H-pyrrolo[2,3-b]pyridin-5-yl]-1,3-dihydro-2H-imidazo[4,5-b]pyridin-2-one] | 3000 to 25000
< 50 | O=c1[nH]c2ncc(-c3ccc4ncccc4c3)cc2n1CC1CCOCC1 [Example 10, 6-Quinolin-6-yl-1-(tetrahydro-2H-pyran-4-ylmethyl)-1,3-dihydro-2H-imidazo[4,5-b]pyridin-2-one] | 3000 to 25000
< 50 | O=c1[nH]c2ncc(-c3ccc4[nH]ccc4c3)cc2n1CCC1=CCOCC1 [Example 49, 1-[2-(3,6-Dihydro-2H-pyran-4-yl)ethyl]-6-(1H-indol-5-yl)-1,3-dihydro-2H-imidazo[4,5-b]pyridin-2-one] | < 3000
< 50 | O=c1[nH]c2ncc(-c3cnc4[nH]ccc4c3)cc2n1CCC1=CCOCC1 [Example 48, 1-[2-(3,6-Dihydro-2H-pyran-4-yl)ethyl]-6-(1H-pyrrolo[2,3-b]pyridin-5-yl)-1,3-dihydro-2H-imidazo[4,5-b]pyridin-2-one] | < 3000
< 50 | O=c1[nH]c2ncc(-c3cc(F)c4[nH]ccc4c3)cc2n1CCN1CCOCC1 [Example 33, 6-(7-Fluoro-1H-indol-5-yl)-1-(2-morpholin-4-ylethyl)-1,3-dihydro-2H-imidazo[4,5-b]pyridin-2-one] | < 3000
< 50 | O=c1[nH]c2ncc(-c3cnc4[nH]ccc4c3)cc2n1CCN1CCOCC1 [Example 55, 1-(2-Morpholin-4-ylethyl)-6-(1H-pyrrolo[2,3-b]pyridin-5-yl)-1,3-dihydro-2H-imidazo[4,5-b]pyridin-2-one] | < 3000
< 50 | O=c1[nH]c2ncc(-c3cnc4[nH]ccc4c3)cc2n1CC1COCCO1 (stereo not drawn) [Example 38, 1-(1,4-Dioxan-2-ylmethyl)-6-(1H-pyrrolo[2,3-b]pyridin-5-yl)-1,3-dihydro-2H-imidazo[4,5-b]pyridin-2-one] | < 3000
< 50 | Cc1nc2[nH]ccc2cc1-c1cnc2[nH]c(=O)n(CC3CCOCC3)c2c1 [Example 16, 6-(6-Methyl-1H-pyrrolo[2,3-b]pyridin-5-yl)-1-(tetrahydro-2H-pyran-4-ylmethyl)-1,3-dihydro-2H-imidazo[4,5-b]pyridin-2-one] | < 3000
100 to 5000 | O=c1[nH]c2ncc(-c3cnc4[nH]ncc4c3)cc2n1CC1CCOCC1 [Example 74, 6-(1H-Pyrazolo[3,4-b]pyridin-5-yl)-1-(tetrahydro-2H-pyran-4-ylmethyl)-1,3-dihydro-2H-imidazo[4,5-b]pyridin-2-one] | 3000 to 25000
< 50 | Cc1nc2[nH]c(=O)n(C[C@H]3COCCO3)c2cc1-c1cnc2[nH]cc(F)c2c1 [Example 119, 1-[(2S)-1,4-Dioxan-2-ylmethyl]-6-(3-fluoro-1H-pyrrolo[2,3-b]pyridin-5-yl)-5-methyl-1,3-dihydro-2H-imidazo[4,5-b]pyridin-2-one] | < 3000
100 to 5000 | N#Cc1c(-c2cnc3[nH]c(=O)n(CC4CCOCC4)c3c2)cnc2[nH]ccc12 [Example 91, 5-[2-Oxo-1-(tetrahydro-2H-pyran-4-ylmethyl)-2,3-dihydro-1H-imidazo[4,5-b]pyridin-6-yl]-1H-pyrrolo[2,3-b]pyridine-4-carbonitrile] | < 3000
